{"source": "patent US10800792B2", "about": "“Inhibitors of Bruton's tyrosine kinase and method of their use” (JANSSEN PHARMACEUTICA NV, priority 2015, dated 2020)", "data": [{"biological_target": "unphosphorylated-BTK kinase domain (UP-BTK), GST-tagged human BTK (389-659aa) (Homo sapiens (Human), UniProt Q06187)", "sequence (Q06187 389-659)": "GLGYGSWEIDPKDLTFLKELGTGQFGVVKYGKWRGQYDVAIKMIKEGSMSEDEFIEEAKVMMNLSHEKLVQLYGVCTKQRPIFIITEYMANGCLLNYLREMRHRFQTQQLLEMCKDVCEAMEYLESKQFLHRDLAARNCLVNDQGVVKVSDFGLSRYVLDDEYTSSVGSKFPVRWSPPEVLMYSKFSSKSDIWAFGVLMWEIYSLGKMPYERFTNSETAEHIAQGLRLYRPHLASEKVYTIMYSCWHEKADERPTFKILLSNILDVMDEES", "assay": "BTK kinase Lanthascreen binding assay", "conditions": "unphosphorylated-BTK kinase domain, 50 nM Tracer 236, 60 minutes; pIC50 = negative log of the IC50 in molar", "summary_of_the_method": "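Compound binding to the unphosphorylated kinase domain was monitored by displacement of a fluorescently labelled tracer in a Lanthascreen format. Potency is given as pIC50, the negative log of the molar IC50.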", "values": [{"smiles": "C=CC(=O)N1CCC[C@@H](NC(=O)c2sc3nccc4c3c2NC(=O)N4c2cccc(Cl)c2)C1", "note": "[Example 294, (R)—N-(1-Acryloylpiperidin-3-yl)-5-(3-chlorophenyl)-4-oxo-4,5-dihydro-3H-1-thia-3,5,8-triazaacenaphthylene-2-carboxamide]", "BTK_I_binding pIC50": 6.1}, {"smiles": "Cc1cc(Oc2ccc(F)cc2)ccc1N1C(=O)Nc2c(C(=O)N[C@@H]3CCCN(C)C3)sc3nccc1c23", "note": "[Example 295, (R)-5-(4-(4-Fluorophenoxy)-2-methylphenyl)-N-(1-methylpiperidin-3-yl)-4-oxo-4,5-dihydro-3H-1-thia-3,5,8-triazaacenaphthylene-2-carboxamide]", "BTK_I_binding pIC50": 6.1}, {"smiles": "Cc1cc(Oc2ccccc2)ccc1N1C(=O)Nc2c(C(=O)NCCN3CCOC[C@H]3C)sc3nccc1c23", "note": "[Example 296, (R)-5-(2-Methyl-4-phenoxyphenyl)-N-(2-(3-methylmorpholino)ethyl)-4-oxo-4,5-dihydro-3H-1-thia-3,5,8-triazaacenaphthylene-2-carboxamide]", "BTK_I_binding pIC50": 6.1}, {"smiles": "Cc1cc(OC2CCCC2)ccc1N1C(=O)Nc2c(C(=O)N[C@@H]3CCCN(C)C3)sc3nccc1c23", "note": "[Example 297, (R)-5-(4-(Cyclopentyloxy)-2-methylphenyl)-N-(1-methylpiperidin-3-yl)-4-oxo-4,5-dihydro-3H-1-thia-3,5,8-triazaacenaphthylene-2-carboxamide]", "BTK_I_binding pIC50": 6.1}, {"smiles": "Cc1cc(Oc2ccccc2)ccc1N1C(=O)Nc2c(C(=O)NCCC3CCCN3C)sc3nccc1c23", "note": "(stereo not drawn) [Example 298, 5-(2-Methyl-4-phenoxyphenyl)-N-(2-(1-methylpyrrolidin-2-yl)ethyl)-4-oxo-4,5-dihydro-3H-1-thia-3,5,8-triazaacenaphthylene-2-carboxamide]", "BTK_I_binding pIC50": 6.1}, {"smiles": "C=CC(=O)N1CC[C@@H](NC(=O)c2sc3nccc4c3c2NC(=O)N4c2ccc(OC)cc2C)C1", "note": "[Example 299, (R)—N-(1-Acryloylpyrrolidin-3-yl)-5-(4-methoxy-2-methylphenyl)-4-oxo-4,5-dihydro-3H-1-thia-3,5,8-triazaacenaphthylene-2-carboxamide]", "BTK_I_binding pIC50": 6.1}, {"smiles": "C=CC(=O)N1CC[C@@H](NC(=O)c2sc3nccc4c3c2NC(=O)N4c2ccccc2F)C1", "note": "[Example 301, (R)—N-(1-Acryloylpyrrolidin-3-yl)-5-(2-fluorophenyl)-4-oxo-4,5-dihydro-3H-1-thia-3,5,8-triazaacenaphthylene-2-carboxamide]", "BTK_I_binding pIC50": 6.0}, {"smiles": "Cc1cc(Oc2ccc(F)cc2F)ccc1N1C(=O)Nc2c(C(=O)N[C@@H]3CCCN(C)C3)sc3nccc1c23", "note": "[Example 302, (R)-5-(4-(2,4-Difluorophenoxy)-2-methylphenyl)-N-(1-methylpiperidin-3-yl)-4-oxo-4,5-dihydro-3H-1-thia-3,5,8-triazaacenaphthylene-2-carboxamide]", "BTK_I_binding pIC50": 6.0}, {"smiles": "Cc1cc(Oc2ccccc2)c(F)cc1N1C(=O)Nc2c(C(=O)N[C@@H]3CCCN(C)C3)sc3nccc1c23", "note": "[Example 303, (R)-5-(5-Fluoro-2-methyl-4-phenoxyphenyl)-N-(1-methylpiperidin-3-yl)-4-oxo-4,5-dihydro-3H-1-thia-3,5,8-triazaacenaphthylene-2-carboxamide]", "BTK_I_binding pIC50": 6.0}, {"smiles": "C=CC(=O)N1CC[C@@H](NC(=O)c2sc3nccc4c3c2NC(=O)N4c2ccc(C)cc2C)C1", "note": "[Example 304, (R)—N-(1-Acryloylpyrrolidin-3-yl)-5-(2,4-dimethylphenyl)-4-oxo-4,5-dihydro-3H-1-thia-3,5,8-triazaacenaphthylene-2-carboxamide]", "BTK_I_binding pIC50": 6.0}, {"smiles": "Cc1cc(Oc2ccccc2)c(F)cc1N1C(=O)Nc2c(C(=O)N[C@@H]3CCCOC3)sc3nccc1c23", "note": "[Example 305, (R)-5-(5-Fluoro-2-methyl-4-phenoxyphenyl)-4-oxo-N-(tetrahydro-2H-pyran-3-yl)-4,5-dihydro-3H-1-thia-3,5,8-triazaacenaphthylene-2-carboxamide]", "BTK_I_binding pIC50": 6.0}, {"smiles": "Cc1cc(Oc2ccccn2)ccc1N1C(=O)Nc2c(C(=O)N[C@@H]3CCCN(C)C3)sc3nccc1c23", "note": "[Example 306, (R)-5-(2-Methyl-4-(pyridin-2-yloxy)phenyl)-N-(1-methylpiperidin-3-yl)-4-oxo-4,5-dihydro-3H-1-thia-3,5,8-triazaacenaphthylene-2-carboxamide]", "BTK_I_binding pIC50": 6.0}, {"smiles": "Cc1cc(Oc2ccccc2)c(F)cc1N1C(=O)Nc2c(C(=O)N[C@H]3CCCOC3)sc3nccc1c23", "note": "[Example 308, (S)-5-(5-Fluoro-2-methyl-4-phenoxyphenyl)-4-oxo-N-(tetrahydro-2H-pyran-3-yl)-4,5-dihydro-3H-1-thia-3,5,8-triazaacenaphthylene-2-carboxamide]", "BTK_I_binding pIC50": 6.0}, {"smiles": "Cc1cc(Oc2ccccc2)ccc1N1C(=O)Nc2c(C(=O)N[C@H]3CCCCN(Cc4ccccc4)C3=O)sc3nccc1c23", "note": "[Example 309, (S)—N-(1-Benzyl-2-oxoazepan-3-yl)-5-(2-methyl-4-phenoxyphenyl)-4-oxo-4,5-dihydro-3H-1-thia-3,5,8-triazaacenaphthylene-2-carboxamide]", "BTK_I_binding pIC50": 6.0}, {"smiles": "Cc1cc(Oc2ccccc2)ccc1N1C(=O)Nc2c(C(=O)NC[C@@H]3CCCCN3)sc3nccc1c23", "note": "[Example 310, (S)-5-(2-Methyl-4-phenoxyphenyl)-4-oxo-N-(piperidin-2-ylmethyl)-4,5-dihydro-3H-1-thia-3,5,8-triazaacenaphthylene-2-carboxamide]", "BTK_I_binding pIC50": 6.0}, {"smiles": "C=CC(=O)N1CC[C@@H](NC(=O)c2sc3nccc4c3c2NC(=O)N4c2ccc(Oc3ccccc3)nn2)C1", "note": "[Example 311, (R)—N-(1-Acryloylpyrrolidin-3-yl)-4-oxo-5-(6-phenoxypyridazin-3-yl)-4,5-dihydro-3H-1-thia-3,5,8-triazaacenaphthylene-2-carboxamide]", "BTK_I_binding pIC50": 5.9}, {"smiles": "CO[C@H]1C[C@@H](NC(=O)c2sc3nccc4c3c2NC(=O)N4c2ccc(Oc3ccccc3)cc2C)CN(C)C1", "note": "[Example 312, N-((3R,5S)-5-Methoxy-1-methylpiperidin-3-yl)-5-(2-methyl-4-phenoxyphenyl)-4-oxo-4,5-dihydro-3H-1-thia-3,5,8-triazaacenaphthylene-2-carboxamide]", "BTK_I_binding pIC50": 5.9}, {"smiles": "C=CC(=O)N1CC[C@@H](NC(=O)c2sc3nccc4c3c2NC(=O)N4c2ccccc2C)C1", "note": "[Example 314, (R)—N-(1-Acryloylpyrrolidin-3-yl)-4-oxo-5-(o-tolyl)-4,5-dihydro-3H-1-thia-3,5,8-triazaacenaphthylene-2-carboxamide]", "BTK_I_binding pIC50": 5.9}, {"smiles": "Cc1cc(Oc2ccccc2)ccc1N1C(=O)Nc2c(C(=O)NCC(=O)N3CCOCC3)sc3nccc1c23", "note": "[Example 315, 5-(2-Methyl-4-phenoxyphenyl)-N-(2-morpholino-2-oxoethyl)-4-oxo-4,5-dihydro-3H-1-thia-3,5,8-triazaacenaphthylene-2-carboxamide]", "BTK_I_binding pIC50": 6.9}, {"smiles": "Cc1cc(Oc2ccccc2)cc(C)c1N1C(=O)Nc2c(C(=O)N[C@@H]3CCCN(C)C3)sc3nccc1c23", "note": "[Example 317, (R)-5-(2,6-Dimethyl-4-phenoxyphenyl)-N-(1-methylpiperidin-3-yl)-4-oxo-4,5-dihydro-3H-1-thia-3,5,8-triazaacenaphthylene-2-carboxamide]", "BTK_I_binding pIC50": 5.8}, {"smiles": "CCN1CCC[C@@H](NC(=O)c2sc3nccc4c3c2NC(=O)N4c2ccc(Oc3ccccc3C(C)C)cc2C)C1", "note": "[Example 320, (R)—N-(1-Ethylpiperidin-3-yl)-5-(4-(2-isopropylphenoxy)-2-methylphenyl)-4-oxo-4,5-dihydro-3H-1-thia-3,5,8-triazaacenaphthylene-2-carboxamide]", "BTK_I_binding pIC50": 6.7}, {"smiles": "Cc1cc(OC2CC2)ccc1N1C(=O)Nc2c(C(=O)N[C@@H]3CCCN(C)C3)sc3nccc1c23", "note": "[Example 322, (R)-5-(4-Cyclopropoxy-2-methylphenyl)-N-(1-methylpiperidin-3-yl)-4-oxo-4,5-dihydro-3H-1-thia-3,5,8-triazaacenaphthylene-2-carboxamide]", "BTK_I_binding pIC50": 5.7}, {"smiles": "C=CC(=O)N1CC[C@@H](NC(=O)c2sc3nccc4c3c2NC(=O)N4c2ccc(Oc3ccccc3)cc2C(F)(F)F)C1", "note": "[Example 324, (R)—N-(1-Acryloylpyrrolidin-3-yl)-4-oxo-5-(4-phenoxy-2-(trifluoromethyl)phenyl)-4,5-dihydro-3H-1-thia-3,5,8-triazaacenaphthylene-2-carboxamide]", "BTK_I_binding pIC50": 5.7}, {"smiles": "Cc1cc(Oc2ccccc2C(N)=O)ccc1N1C(=O)Nc2c(C(=O)N[C@@H]3CCCN(C)C3)sc3nccc1c23", "note": "[Example 326, (R)-5-(4-(2-Carbamoylphenoxy)-2-methylphenyl)-N-(1-methylpiperidin-3-yl)-4-oxo-4,5-dihydro-3H-1-thia-3,5,8-triazaacenaphthylene-2-carboxamide]", "BTK_I_binding pIC50": 5.7}, {"smiles": "Cc1cnc2sc(C(=O)N[C@@H]3CCCNC3)c3c2c1N(c1ccc(Oc2ccccc2)cc1)C(=O)N3", "note": "[Example 328, (R)-6-Methyl-4-oxo-5-(4-phenoxyphenyl)-N-(piperidin-3-yl)-4,5-dihydro-3H-1-thia-3,5,8-triazaacenaphthylene-2-carboxamide]", "BTK_I_binding pIC50": 5.7}, {"smiles": "O=C(N[C@@H]1CCCNC1)c1sc2nccc3c2c1NC(=O)N3c1cc(Cl)cc(Cl)c1", "note": "[Example 330, (R)-5-(3,5-Dichlorophenyl)-4-oxo-N-(piperidin-3-yl)-4,5-dihydro-3H-1-thia-3,5,8-triazaacenaphthylene-2-carboxamide]", "BTK_I_binding pIC50": 5.6}, {"smiles": "Cc1cc(Oc2ccccc2)ccc1N1C(=O)Nc2c(C(=O)N(C)[C@@H]3CCNC3)sc3nccc1c23", "note": "[Example 331, (R)—N-Methyl-5-(2-methyl-4-phenoxyphenyl)-4-oxo-N-(pyrrolidin-3-yl)-4,5-dihydro-3H-1-thia-3,5,8-triazaacenaphthylene-2-carboxamide]", "BTK_I_binding pIC50": 5.5}]}]}
